The source of these data is patent US10781262B2, “Combination therapy of T cell activating bispecific antigen binding molecules and PD-1 axis binding antagonists” (Hoffmann-La Roche Inc., priority 2014, dated 2020).

Test [1] concerns RPMI-8226 cells. The test is described as follows: Cytotoxic activity, CellTiter-Glo Luminescent Cell Viability Assay. Particulars: for IC50: Homo sapiens. The procedure:
(§1) Treatment ranges from 10 μg/ml to 1 ng/ml in triplicate. All antibodies were used as full length mouse Fcγ versions. For conjugation of the conjugation of the Pseudomonas exotoxin 10 μg/ml of mouse Fcγ fragment specific Fabs conjugated with PE 24 were added and incubated for 3 days at 37° C. Cycloheximide as a known protein synthesis inhibitor in eukaryotes was used as positive control. Viability of treated cells were measured with Promega CellTiter-Glo Luminescent Cell Viability Assay.
(§2) The cytotoxic activity was calculated as follow: Rel. Inhibition [%]=(1−(Esampel−E negative control)/(E positive control−E negative control))*100
(§3) All antibodies were used as full length human IgG1 format including the human Fcgamma part. In this experiment conjugation of the Pseudomonas exotoxin was achieved via human Fcγ fragment specific Fabs conjugated with PE 24 (10 μg/ml) which were added and incubated for 5 days at 37° C.
(§4) The cytotoxic activity was analysed with Promega CellTiter-Glo Luminescent Cell Viability Assay as described above. 1:5 serial dilutions of Fab-fragments of disclosed anti-TIM3 antibodies directly conjugated to PE24 with the highest concentration of 50 μg/ml or appropriate media to untreated cells or non-binding anti-PSMA Fab-PE24 control to untargeted treated cells were incubated with 7.5×10^3 Pfeiffer cells or 2×10^3 RPMI-8226 cells (50 μl/well in […]) for 4 days at 37° C. Treatment ranges from 50 μg/ml to 8 ng/ml in triplicate. Cycloheximide was used as positive control.
(§5) The evaluation of cytotoxic activity of sortase coupled Fab-PE24 constructs of selected disclosed anti-TIM3 antibodies was analysed with Promega CellTiter-Glo Luminescent Cell Viability Assay as described above in Example 28.
(ATP-based viability assays read luminescence as a measure of living cells.)

The subject of test [2] is Pfeiffer cells. The description is as above. Particulars: for IC50: Homo sapiens, Pfeiffer. The procedure:
as §1, §2, §3, §4, §5

Test [3] has as its system recombinant CHO K1 stabile expressing human TIM-3. Described as above. The test is classed as cell-based. Particulars: CHO-K1, 72 h; sandwich format: mouse Fcγ antibodies + mouse Fcγ specific Fabs conjugated with PE 24, 3 days.
In test [4] the test system is primary CD34+ AML cells from relapsed/refractory patients. Description: Cytotoxic activity on primary AML cells, CellTiter-Glo. To be noted: Fab-PE24 constructs, 3 days; for IC50: Homo sapiens, 72 h. The test is classed as cell-based, human. From the text:
CD34^+ cells from peripheral blood of relapsed/refractory patients were obtained from AllCells, LLC, Alameda, Calif. […] (see FIG. 31).
(§6) Cycloheximide was used as positive control.

In test [5] the test system is CMK. The test is described as follows: Cytotoxic activity, CellTiter-Glo Luminescent Cell Viability Assay. The test is classed as cell-based. Particulars: Fab-PE24 constructs.
Source text: as §6

The subject of test [6] is MOLM-13. Described as above. The format is cell-based. To be noted: Fab-PE24 constructs.
Source text: as §6

Test [7] has as its system Karpas-299. The test is described as above. The format is cell-based. To be noted: Fab-PE24 constructs.
Source text: as §6

Test [8] deals with TF-1. The description is as above. Particulars: Fab-PE24 constructs. The format is cell-based.
Source text: as §6

The target in test [9] is human Folate Receptor 1 Fc fusion (Homo sapiens, UniProt P15328). To be noted: monovalent binding (affinity), analyte huFolR1. On the procedure: (§7) Binding of FolR1 binders as IgG or in the T-cell bispecific format to different recombinant folate receptors (human FolR1, 2 and 3, murine FolR1 and cynomolgus FolR1; all as Fc fusions) was assessed by surface plasmon resonance (SPR). All SPR experiments were performed on a Biacore T200 at 25° C. with HBS-EP as running buffer (0.01 M HEPES pH 7.4, 0.15 M NaCl, 3 mM EDTA, 0.005% Surfactant P20, Biacore, Freiburg/Germany).
Sequence of human Folate Receptor 1 Fc fusion (P15328 with tags, fused parts or gaps): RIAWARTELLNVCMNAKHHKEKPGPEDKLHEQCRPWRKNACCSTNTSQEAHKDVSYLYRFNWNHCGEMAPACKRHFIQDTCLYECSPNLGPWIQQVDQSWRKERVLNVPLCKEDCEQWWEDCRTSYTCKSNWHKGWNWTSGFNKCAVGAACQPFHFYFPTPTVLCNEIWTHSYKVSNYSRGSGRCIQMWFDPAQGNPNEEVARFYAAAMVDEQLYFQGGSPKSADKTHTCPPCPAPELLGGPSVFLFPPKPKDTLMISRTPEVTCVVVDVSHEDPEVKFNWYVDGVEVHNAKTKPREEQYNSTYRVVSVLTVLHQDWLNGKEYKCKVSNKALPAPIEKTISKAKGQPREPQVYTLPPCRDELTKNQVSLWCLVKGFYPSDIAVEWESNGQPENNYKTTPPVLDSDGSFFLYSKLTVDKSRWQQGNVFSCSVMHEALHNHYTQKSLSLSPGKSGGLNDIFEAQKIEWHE
Sequence of human Folate Receptor 1 Fc fusion (P01857 104-330 isoform P01857-1 Y232C/T249S/L251A/Y290V/H318R/Y319F partner): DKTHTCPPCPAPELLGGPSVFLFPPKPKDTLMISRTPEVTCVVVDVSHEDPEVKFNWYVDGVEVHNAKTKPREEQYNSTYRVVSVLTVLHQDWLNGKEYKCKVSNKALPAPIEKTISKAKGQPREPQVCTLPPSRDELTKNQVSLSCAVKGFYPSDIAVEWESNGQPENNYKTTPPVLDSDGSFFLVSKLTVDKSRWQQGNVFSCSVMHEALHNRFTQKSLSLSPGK
(§8) For affinity measurement, direct coupling of around 6000-7000 resonance units (RU) of the anti-human Fab specific antibody (Fab capture kit, GE Healthcare) was performed on a CM5 chip at pH 5.0 using the standard amine coupling kit (GE Healthcare). Anti-FolR1 IgGs or T cell bispecifics were captured at 20 nM with a flow rate of 10 μl/min for 20 or 40 sec, the reference flow cell was left without capture. Dilution series (6.17 to 500 nM or 12.35 to 3000 nM) of human or cyno Folate Receptor 1 Fc fusion were passed on all flow cells at 30 μl/min for 120 or 240 sec to record the association phase. The dissociation phase was monitored for 240 s and triggered by switching from the sample solution to HBS-EP. The chip surface was regenerated after every cycle using a double injection of 60 sec 10 mM Glycine-HCl pH 2.1 or pH 1.5. Bulk refractive index differences were corrected for by subtracting the response obtained on the reference flow cell 1. The affinity constants for the interactions were derived from the rate constants by fitting to a 1:1 Langmuir binding using the Bia Evaluation software (GE Healthcare).

In test [10] the target is cyno Folate Receptor 1 Fc fusion. Particulars: monovalent binding (affinity), analyte cyFolR1. The procedure:
as §7, §8

Test [11] has as its target human FolR3 (Homo sapiens, UniProt P41439). To be noted: IgG injected for 60 seconds at 500 nM. On the procedure:
as §7
(§9) First the anti-FolR1 IgGs were analyzed by single injections (Table 1) to characterize their crossreactivity (to human, murine and cyno FolR1) and specificity (to human FolR1, human FolR2, human FolR3). Recombinant biotinylated monomeric Fc fusions of human, cynomolgus and murine Folate Receptor 1 (FolR1-Fc) or human Folate Receptor 2 and 3 (FolR2-Fc, FolR3-Fc) were directly coupled on a SA chip using the standard coupling instruction (Biacore, Freiburg/Germany). The immobilization level was about 300-400 RU. The IgGs were injected for 60 seconds at a concentration of 500 nM.

In test [12] the target is human FolR1 (Homo sapiens, UniProt P15328). Particulars: IgG injected for 60 seconds at 500 nM. On the procedure:
as §7, §9

For test [13], the system named is cynomolgus FolR1. Particulars: IgG injected for 60 seconds at 500 nM. On the procedure: as §7, §9
Sequence of cynomolgus FolR1 (as listed by the source): as the sequence (P15328 with tags, fused parts or gaps) above, with I2T, W4R, R37K, A146P, H171Y counted along it
Test [14] addresses human FolR2 (Homo sapiens, UniProt P14207). To be noted: IgG injected for 60 seconds at 500 nM. On the procedure: as §7, §9
Test [15] deals with murine FolR1 (Mus musculus, UniProt P35846). To be noted: IgG injected for 60 seconds at 500 nM. On the procedure:
as §7, §9

Test [16] has as its target T1, human Folate Receptor 1 (FolR1-Fc) (Homo sapiens, UniProt P15328).
T1 construct: the extracellular domain of the antigen linked to the hinge region of Fc-knob; made in house; host or cells: HEK293 EBNA
Description: SPR avidity to Folate Receptor 1 (bivalent binding). Particulars: bivalent binding (avidity), ligand huFolR1. From the text: The immobilization level was about 300-400 RU. […] The dissociation was monitored for 600 seconds.

The test system of test [17] is cynomolgus Folate Receptor 1 (FolR1-Fc). To be noted: bivalent binding (avidity), ligand cyFolR1. On the procedure: as §7
Sequence of cynomolgus Folate Receptor 1 (FolR1-Fc) (as listed by the source): as the sequence (P15328 with tags, fused parts or gaps) above, with I2T, W4R, R37K, A146P, H171Y counted along it
Sequence of cynomolgus Folate Receptor 1 (FolR1-Fc) (as listed by the source partner): as the sequence (P01857 104-330 isoform P01857-1 Y232C/T249S/L251A/Y290V/H318R/Y319F partner) above
The avidity of the interaction between the anti-FolR1 IgGs or T cell bispecifics and the recombinant folate receptors was determined as described below (Table 9). Recombinant biotinylated monomeric Fc fusions of human, cynomolgus and murine Folate Receptor 1 (FolR1-Fc) were directly coupled on a SA chip using the standard coupling instruction (Biacore, Freiburg/Germany). The immobilization level was about 300-400 RU. The anti-FolR1 IgGs or T cell bispecifics were passed at a concentration range from 2.1 to 500 nM with a flow of 30 μL/minutes through the flow cells over 180 seconds. The dissociation was monitored for 600 seconds. […] The binding curves resulting from the bivalent binding of the IgGs or T cell bispecifics were approximated to a 1:1 Langmuir binding and fitted with that model (which is not correct, but gives an idea of the avidity). The apparent avidity constants for the interactions were derived from the rate constants of the fitting using the Bia Evaluation software (GE Healthcare).

[18] abbreviates: human IgG1 format + human Fcγ specific Fabs conjugated with PE 24, 5 days.
[19] abbreviates: sortase coupled Fab-PE24 constructs.
[20] abbreviates: Fab-PE24 construct vs. total IgG-Amatoxin conjugate.

The IC50 is the concentration that gives 50% inhibition.

Read-outs that look alike come from different tables or passages of the source.

Sequence of cyno Folate Receptor 1 Fc fusion (as listed by the source): as the sequence (P15328 with tags, fused parts or gaps) above, with I2T, W4R, R37K, A146P, H171Y counted along it
Sequence of cyno Folate Receptor 1 Fc fusion (P01857 104-330 isoform P01857-1 Y232C/T249S/L251A/Y290V/H318R/Y319F partner): as the sequence (P01857 104-330 isoform P01857-1 Y232C/T249S/L251A/Y290V/H318R/Y319F partner) above
T1 sequence (P15328 with tags, fused parts or gaps): as the sequence (P15328 with tags, fused parts or gaps) above
T1 sequence (P01857 104-330 isoform P01857-1 Y232C/T249S/L251A/Y290V/H318R/Y319F partner): as the sequence (P01857 104-330 isoform P01857-1 Y232C/T249S/L251A/Y290V/H318R/Y319F partner) above
Sequence of murine FolR1 (P35846 with tags, fused parts or gaps): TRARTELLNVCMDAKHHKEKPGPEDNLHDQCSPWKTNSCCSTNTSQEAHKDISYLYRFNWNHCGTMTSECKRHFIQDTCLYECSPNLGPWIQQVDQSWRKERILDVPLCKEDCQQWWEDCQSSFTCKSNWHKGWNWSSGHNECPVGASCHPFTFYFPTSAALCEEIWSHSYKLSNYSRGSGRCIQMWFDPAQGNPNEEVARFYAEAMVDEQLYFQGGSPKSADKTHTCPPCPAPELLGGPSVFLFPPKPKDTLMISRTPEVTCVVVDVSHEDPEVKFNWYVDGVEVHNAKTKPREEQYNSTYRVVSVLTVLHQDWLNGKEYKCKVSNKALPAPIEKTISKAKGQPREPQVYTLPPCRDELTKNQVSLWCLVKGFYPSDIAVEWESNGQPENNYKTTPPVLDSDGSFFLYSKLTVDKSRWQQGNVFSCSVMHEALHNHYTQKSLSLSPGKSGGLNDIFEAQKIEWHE
Sequence of murine FolR1 (as listed by the source partner): as the sequence (P01857 104-330 isoform P01857-1 Y232C/T249S/L251A/Y290V/H318R/Y319F partner) above
Sequence of human FolR2 (P14207 with tags, fused parts or gaps): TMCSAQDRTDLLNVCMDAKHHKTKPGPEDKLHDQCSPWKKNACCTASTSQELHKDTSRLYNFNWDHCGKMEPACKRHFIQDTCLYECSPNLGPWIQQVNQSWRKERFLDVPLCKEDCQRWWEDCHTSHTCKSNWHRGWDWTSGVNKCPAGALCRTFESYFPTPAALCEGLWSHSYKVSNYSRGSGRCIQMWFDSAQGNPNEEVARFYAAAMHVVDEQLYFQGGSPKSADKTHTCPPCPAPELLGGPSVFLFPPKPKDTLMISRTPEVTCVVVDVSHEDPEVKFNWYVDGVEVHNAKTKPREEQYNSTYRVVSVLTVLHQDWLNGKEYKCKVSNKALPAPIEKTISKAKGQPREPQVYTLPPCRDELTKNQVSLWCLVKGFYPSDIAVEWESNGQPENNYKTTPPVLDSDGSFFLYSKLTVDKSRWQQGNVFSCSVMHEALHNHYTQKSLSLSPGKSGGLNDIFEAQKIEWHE
Sequence of human FolR2 (P01857 104-330 isoform P01857-1 Y232C/T249S/L251A/Y290V/H318R/Y319F partner): as the sequence (P01857 104-330 isoform P01857-1 Y232C/T249S/L251A/Y290V/H318R/Y319F partner) above
Sequence of human FolR3 (P41439 with tags, fused parts or gaps): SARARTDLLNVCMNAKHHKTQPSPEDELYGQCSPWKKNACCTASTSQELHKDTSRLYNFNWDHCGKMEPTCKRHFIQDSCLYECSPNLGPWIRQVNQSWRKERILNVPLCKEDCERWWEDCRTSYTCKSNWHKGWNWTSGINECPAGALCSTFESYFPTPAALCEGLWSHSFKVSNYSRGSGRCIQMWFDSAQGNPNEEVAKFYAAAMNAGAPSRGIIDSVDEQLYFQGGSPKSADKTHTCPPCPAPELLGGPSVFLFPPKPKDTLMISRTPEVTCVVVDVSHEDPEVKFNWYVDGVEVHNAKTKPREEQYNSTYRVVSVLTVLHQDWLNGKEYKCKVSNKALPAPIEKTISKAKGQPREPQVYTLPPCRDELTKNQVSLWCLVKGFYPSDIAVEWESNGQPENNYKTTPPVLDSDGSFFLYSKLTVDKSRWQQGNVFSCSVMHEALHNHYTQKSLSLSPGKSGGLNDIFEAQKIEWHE
Sequence of human FolR3 (P01857 104-330 isoform P01857-1 Y232C/T249S/L251A/Y290V/H318R/Y319F partner): as the sequence (P01857 104-330 isoform P01857-1 Y232C/T249S/L251A/Y290V/H318R/Y319F partner) above
Sequence of human FolR1 (P15328 with tags, fused parts or gaps): as the sequence (P15328 with tags, fused parts or gaps) above
Sequence of human FolR1 (P01857 104-330 isoform P01857-1 Y232C/T249S/L251A/Y290V/H318R/Y319F partner): as the sequence (P01857 104-330 isoform P01857-1 Y232C/T249S/L251A/Y290V/H318R/Y319F partner) above

Take `C[C@@H]1C[C@@H]([C@H](O)CC2CC(=O)NC(=O)C2)C(=O)[C@@H](C)C1` [Cycloheximide]: the Max. killing is 100 [%] in [1] (Fab-PE24 constructs, 4 days); 100 [%] in test [1] (setting [18]); 100 [%] in test [1] (setting [19]); 100 [%] in [2] (setting [20]); 100 [%] in test [2] (setting [18]); 100 [%] in test [2] (setting [19]). For the same compound, the Max. killing was 100 [%] in test [4] (D1, AML CD34+ PB0136 cells); 100 [%] in [4] (D2, AML CD34+ PB0142 cells); 100 [%] in [4] (D3, AML CD34+ PB0135 cells); 100 [%] in test [4] (D4, AML CD34+ PB0193 cells); 100 [%] in test [5]; 100 [%] in [6]. Besides, the Max. killing in [7] and in test [8] was 100 [%] in each case. The IC50 in [1] (RPMI-8226) came out at 153 nM; in test [1] (RPMI-8226, 96 h), 281 nM; in test [2] (72 h, sandwich format: mouse Fcγ antibodies + mouse Fcγ specific Fabs conjugated with PE 24, 3 days), 181 nM; in test [2] (120 h, read-out: Rel. IC50, human IgG1 format + human Fcγ specific Fabs conjugated with PE 24, 5 days), 271 nM; in test [2] (setting [20]) it was 163 nM; in test [2] (setting [19]), 271 nM. For the same compound, the IC50 in test [3] turned out to be 135 nM; in test [4] (D1, AML CD34+ PB0136 cells), 212 nM; in test [4] (D2, AML CD34+ PB0142 cells) it was 262 nM; in test [4] (D3, AML CD34+ PB0135 cells), 121 nM; in [4] (D4, AML CD34+ PB0193 cells) it was 208 nM; in [5] (Homo sapiens, CMK), 149 nM. The IC50 turned out to be 156 nM in [6] (Homo sapiens, MOLM-13); 113 nM in test [7] (Homo sapiens, KARPAS-299); 207 nM in test [8] (Homo sapiens, TF-1).
Regarding Farletuzumab [reference compound], the ka came out at 417000 M⁻¹ s⁻¹ in [9], 553000 M⁻¹ s⁻¹ in test [10], 1.23e+06 M⁻¹ s⁻¹ in test [16] and 1.33e+06 M⁻¹ s⁻¹ in test [17]. The kd in [9] is 0.023 s⁻¹; in [10], 0.0373 s⁻¹; in [16], 0.0009 s⁻¹; in test [17], 0.000868 s⁻¹. The Kd in test [10] was found to be 67.3 nM; in test [17] (read-out: Apparent KD, approximated 1:1 Langmuir fit) it was 0.65 nM. Further, the “Binding to huFolR3” value in test [11] is on record as “−”. Besides, the “Binding to huFolR1” value in test [12] is on record as “+”. Further, the “Binding to cyFolR1” value in [13] is listed as “+”. Besides, in [14], the “Binding to huFolR2” value is listed as “−”. The “Binding to muFolR1” value in test [15] was “−”.
